Data on two molecules can be found in patent US11045452B2, “Composition for preventing or treating cancer comprising a vascular disrupting agent and immune checkpoint inhibitor” (CHONG KUN DANG PHARMACEUTICAL CORP., priority 2017, dated 2021).

Experiment [1] relates to mouse bone marrow-derived dendritic cells (BM-DC). Description: Measurement of phagocytosis of dendritic cells (FITC OVA-microsphere, flow cytometer). It is filed as cell-based. Particulars: 100 nM, 18 hours, then FITC OVA-microsphere 2 hours, FIG. 5. The method, then:
(§1) Mouse bone marrow-derived dendritic cells (BM-DC) were obtained from a femur of BALB/c or C57BL/6 mouse. The cells were kept with Dulbecco's modified Eagle medium (DMEM) containing 40 ng/mL of rmGM-CSF (JW Creagene, Sungnam, Korea) and 20 ng/mL of rmIL-4 (JW CreaGene), and containing 10% heat-inactivated FBS (Hyclone), 100 U/ml of penicillin, 100 μg/ml of streptomycin (Hyclone) and 50 μM of 2-mercaptoethanol (Sigma-Aldrich, Inc., St. Louis, Mo., USA).
(§2) A compound of a Formula 2 (Compound 2), which was an active metabolite of the compound of the Formula 1, was dissolved in DMSO, and diluted with a medium of the mouse bone marrow-derived dendritic cells so as to prepare active compound.
To identify phagocytosis of dendritic cells, the mouse bone marrow-derived dendritic cells (2×10^6/well) were treated with 100 nM of the compound of the Formula 2 for 18 hours, and then added with OVA-microsphere containing ovalbumin tagged with fluorescein isothiocyanate (FITC), so as to be cultured for 2 hours. Completely cultured cells were washed with PBS, and then the cells were collected, fixed with paraformaldehyde, and analyzed with a flow cytometer.
(§3) A statistical significance between a control group and a treated group was verified by using student t-test.
(A flow cytometer gives signals particle by particle.)

Experiment [2] has the same test system. Kind of experiment: Identification of phenotype of dendritic cells (flow cytometry of cell surface markers). The note with it: 24 hours. In kind it is cell-based. As to the method: as §1, §2
To identify a phenotype of dendritic cells, the mouse bone marrow-derived dendritic cells were treated with the compound of the Formula 2 for 24 hours, and then were dyed with an antibody (antibody to anti-mouse CD80, anti-mouse CD86 or anti-mouse MHC II) to a cell surface marker of the mouse bone marrow-derived dendritic cells as well as an isotype control antibody. Flow cytometry was performed by using FACS Canto II flow cytometer (Becton Dickinson).
as §3

Experiment [3] shares this test system. Description: Measurement of cytokines produced by dendritic cells (immunoassay kit). It is filed as cell-based. Particulars: 24 hours, cell culture medium, all groups administered, FIG. 4. As to the method: as §1, §2
To identify a change in secretion of cytokines, the mouse bone marrow-derived dendritic cells were treated with the compound of the Formula 2 for 24 hours, and then the cytokines were measured by using a cell culture medium. An immunoassay kit (R&D system) was used for measuring cytokines, and thus IL-1β, IL-6 and IL-12 were measured.
as §3

The test system of experiment [4] is MC38, a mouse colorectal cancer cell line. Kind of experiment: MC38 cancer animal model, Formula 1 with anti-PD-1 / anti-CTLA-4 antibody (Example 2). It is filed as in vivo, C57BL/6 mouse. The method, then: MC38 (8×10^4 cell), a mouse colorectal cancer cell line, was subcutaneously transplanted to a C57BL/6 mouse. When a size of cancer reaches 40-60 mm^3, a vehicle or 5 mg/kg of the compound of the Formula 1 was intraperitoneally injected into the mouse twice a week. Also, 1 ug/uL (200 ug/200 uL/mouse) of an anti-PD-1 antibody, an anti-CTLA-4 antibody or both thereof (purchased from BioXCell) was intraperitoneally injected into the mouse twice a week, in one day after administering a vehicle or the compound of the Formula 1. A size of cancer and a weight were measured twice a week.

Experiment [5] shares this test system. Kind of experiment: MC38 cancer animal model, Formula 1 with anti-PD-L1 antibody (Example 3). Particulars: FIG. 7. It is filed as in vivo, C57BL/6 mouse. The method, then:
MC38 (8×10^4 cell), a mouse colorectal cancer cell line, was subcutaneously transplanted to a C57BL/6 mouse. When a size of cancer reaches 40-60 mm^3, a vehicle or 5 mg/kg of the compound of the Formula 1 was intraperitoneally injected into the mouse twice a week. Also, 1 ug/uL (200 ug/200 uL/mouse) of an anti-PD-L1 antibody was intraperitoneally injected into the mouse twice a week, in one day after administering a vehicle or the compound of the Formula 1. A size of cancer and a weight were measured twice a week.

On to `COc1cc(C(=O)c2ccc(-c3csc(N)n3)cc2-n2cncn2)cc(OC)c1OC` [Formula 2, (4-(2-aminothiazole-4-yl)-2-(1H-1,2,4-triazole-1-yl)phenyl)(3,4,5-trimethoxyphenyl)methanone], for which, in experiment [1], the “phagocytosis of dendritic cells (fluorescence intensity)” value was “increased”. The “MHC II (phenotype of mature dendritic cells) expression” value in experiment [2] (100 nM, FIG. 3) is “increased”. For the same molecule, the “CD80 (mature dendritic cell marker) expression” value in experiment [2] (0.01, 0.1 and 1 μM, FIG. 1) is listed as “increased”. Further, the “CD86 (mature dendritic cell marker) expression” value in experiment [2] (0.01, 0.1 and 1 μM, FIG. 2) is on record as “increased”. Besides, in experiment [3], the IL-1β secretion result was “increased”, the IL-6 secretion result is “increased” and the IL-12 secretion result is “increased”.
`COc1cc(C(=O)c2ccc(-c3csc(NC(=O)[C@@H](N)C(C)C)n3)cc2-n2cncn2)cc(OC)c1OC` [Formula 1, (S)—N-(4-(3-(1H-1,2,4-triazole-1-yl)-4-(3,4,5-trimethoxybenzoyl)phenyl)thiazole-2-yl)-2-amino-3-methylbutanamide]: the “therapeutic potential in combination with the anti-CTLA-4 antibody” value in experiment [4] (Formula 1 5 mg/kg i.p. + anti-CTLA-4 antibody 200 ug/mouse i.p., twice a week, FIG. 6) is recorded as “very high therapeutic potential with a synergy effect”. In experiment [4] (Formula 1 5 mg/kg i.p. + anti-PD-1 antibody 200 ug/mouse i.p., twice a week, FIG. 6), the “therapeutic potential in combination with the anti-PD-1 antibody” value is given as “very high therapeutic potential with a synergy effect”. Moreover, the “experimental animals in which cancer was completely eradicated” value in experiment [4] (Formula 1 5 mg/kg i.p. + anti-PD-1 antibody and anti-CTLA-4 antibody, twice a week) is listed as “two of ten”. In experiment [4] (Formula 1 5 mg/kg i.p. + both antibodies i.p., twice a week, FIG. 6), the “anti-cancer effect in combination with the anti-PD-1 antibody and the anti-CTLA-4 antibody” value was “most increased”. Further, the growth of cancer result in experiment [4] (single administration, Formula 1 5 mg/kg i.p. twice a week, antibody 200 ug/mouse i.p. twice a week, FIG. 6) is reported as “remarkably inhibited”; in experiment [5] (single administration, Formula 1 5 mg/kg i.p. twice a week, antibody 200 ug/mouse i.p. twice a week), “remarkably inhibited”. The “therapeutic potential in combination with the anti-PD-L1 antibody” value in experiment [5] (Formula 1 5 mg/kg i.p. + anti-PD-L1 antibody 200 ug/mouse i.p., twice a week) is reported as “very high therapeutic potential with a synergy effect”.
